# Measurements: patent US10059713B2 (Takeda Pharmaceutical Company Limited, priority 2014, dated 2018)
# Molecular target: human GPR43 (Homo sapiens (Human), UniProt O15552)
# Assay: Ca-Flux functional assay: determination of agonist/positive allosteric modulator (PAM) activity
# Assay type: cell-based
# Conditions: CHO-K1 Gα16 cells stably expressing human GPR43; compound added with EC20 sodium acetate; intracellular Ca2+ by FLIPR; does not distinguish agonist from PAM
# Experimental: Ca-Flux Functional Assay: Determination of Agonist/Positive Allosteric Modulator (PAM) Activity
# GPR43 agonist/PAM activity was determined by measuring changes in intracellular calcium levels using a Ca^2+ sensitive fluorescent dye. The changes in fluorescent signal were monitored by FLIPR (manufactured by Molecular Devices). GPR43 mediated increases in intracellular Ca^2+ concentration were readily detected upon activation with sodium acetate. Prior to the assay (24 hours), CHO-K1 Gα16 cells stably expressing human GPR43 were-seeded in cell culture medium in black, clear-bottom 384-well plates (Corning Inc) and grown overnight at 37° C., 5% CO2. On the day of the assay, cell culture media was removed and cells were loaded with Calcium 5 Dye (Molecular Devices) diluted in HBSS containing 25 mM HEPES, 2.5 mM Probenecid, 0.1% BSA for 1 hour at 37° C., 5% CO2. 10 point half log concentration response curves of sodium acetate from 10 mM were conducted prior to the testing of compounds to calculate the sodium acetate concentration that produces 20% of the maximal response (EC20). Test compounds (at 10 point half log concentration response curves from 10 μM) were added in the presence of sodium acetate to achieve a final concentration that produces approximately 20% maximal response as calculated from the previous experiment. The changes in fluorescent signal were monitored by FLIPR upon addition of the compound/EC20 sodium acetate mix. The EC50 values were determined from ten point concentration response curves. Curves were generated using the average of two wells for each data point.
# The above assay detects both GPR43 receptor agonists and positive allosteric modulators of the GPR43 receptor, without distinguishing between the two. Activity in either regard is useful in the treatment of conditions associated with GPR43 receptor activity.
# human GPR43, sequence (O15552 whole entry): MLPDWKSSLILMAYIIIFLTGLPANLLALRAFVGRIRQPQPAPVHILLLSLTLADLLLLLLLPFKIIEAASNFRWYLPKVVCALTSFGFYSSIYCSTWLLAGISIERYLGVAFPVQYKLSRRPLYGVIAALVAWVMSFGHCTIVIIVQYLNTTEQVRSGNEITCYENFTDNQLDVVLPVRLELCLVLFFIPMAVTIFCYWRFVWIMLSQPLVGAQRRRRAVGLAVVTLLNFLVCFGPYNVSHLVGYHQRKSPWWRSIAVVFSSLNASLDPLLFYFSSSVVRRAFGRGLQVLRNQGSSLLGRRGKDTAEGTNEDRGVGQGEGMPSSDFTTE
row,SMILES,EC50
1,"Nc1[nH]c2c(C3CCCC3)ncnc2c1S(=O)(=O)c1ccccc1 [Example 23, 7-(benzenesulfonyl)-4-cyclopentyl-5H-pyrrolo[3,2-d]pyrimidin-6-amine]",97 nM
2,"Nc1[nH]c2c(/C=C/C3CC3)ncnc2c1S(=O)(=O)c1ccccc1 [Example 11, 7-(benzenesulfonyl)-4-[(E)-2-cyclopropylethenyl]-5H-pyrrolo[3,2-d]pyrimidin-6-amine]",112 nM
3,"Nc1[nH]c2c(OCC3CC(F)(F)C3)ncnc2c1S(=O)(=O)c1ccccc1 [Example 171, 7-(benzenesulfonyl)-4-[(3,3-difluorocyclobutyl)methoxy]-5H-pyrrolo[3,2-d]pyrimidin-6-amine]",134 nM
4,"Cc1nc(OC2CC(F)(F)C2)c2[nH]c(N)c(S(=O)(=O)c3ccccc3)c2n1 [Example 259, 7-(benzenesulfonyl)-4-(3,3-difluorocyclobutoxy)-2-methyl-5H-pyrrolo[3,2-d]pyrimidin-6-amine]",66 nM
5,"CC(C)C1CN(c2ncnc3c(S(=O)(=O)c4ccccc4)c(N)[nH]c23)CCO1 (stereo not drawn) [Example 184, 7-(benzenesulfonyl)-4-[2-(propan-2-yl)morpholin-4-yl]-5H-pyrrolo[3,2-d]pyrimidin-6-amine]",83 nM
6,"Cc1ccccc1-c1ncnc2c(S(=O)(=O)c3ccccc3)c(N)[nH]c12 [Example 108, 7-(benzenesulfonyl)-4-(2-methylphenyl)-5H-pyrrolo[3,2-d]pyrimidin-6-amine]",92 nM
7,"Cc1nc(N2CCO[C@@H](C)C2)c2[nH]c(N)c(S(=O)(=O)c3ccc(Br)cc3N3CCO[C@@H](C)C3)c2n1 [Example 240, 7-{4-bromo-2-[(2S)-2-methylmorpholin-4-yl]benzenesulfonyl}-2-methyl-4-[(2S)-2-methylmorpholin-4-yl]-5H-pyrrolo[3,2-d]pyrimidin-6-amine]",125 nM
8,"CCNc1ncnc2c(S(=O)(=O)c3ccccc3)c(N)[nH]c12 [Example 65, 7-(benzenesulfonyl)-4-N-ethyl-5H-pyrrolo[3,2-d]pyrimidine-4,6-diamine]",6820 nM
9,"Nc1[nH]c2c(OCC3CCCCO3)ncnc2c1S(=O)(=O)c1ccccc1 (stereo not drawn) [Example 156, 7-(benzenesulfonyl)-4-(oxan-2-ylmethoxy)-5H-pyrrolo[3,2-d]pyrimidin-6-amine]",3000 nM
10,"COc1cccc(S(=O)(=O)c2c(N)[nH]c3c(N4CCOC(C)C4)ncnc23)c1 (stereo not drawn) [Example 154, 7-(3-methoxybenzenesulfonyl)-4-(2-methylmorpholin-4-yl)-5H-pyrrolo[3,2-d]pyrimidin-6-amine]",47 nM
11,"Nc1[nH]c2cc(C3=CCCCC3)cnc2c1S(=O)(=O)c1ccccc1 [Example 25, 3-(benzenesulfonyl)-6-(cyclohex-1-en-1-yl)-1H-pyrrolo[3,2-b]pyridin-2-amine]",288 nM
12,"Nc1[nH]c2c(N3CCOC(C4CC4)C3)ncnc2c1S(=O)(=O)c1ccccc1 (stereo not drawn) [Example 80, 7-(benzenesulfonyl)-4-(2-cyclopropylmorpholin-4-yl)-5H-pyrrolo[3,2-d]pyrimidin-6-amine]",133 nM
13,"Nc1[nH]c2c(C3=CCCCC3)ncnc2c1S(=O)(=O)C1CCCCC1 [Example 50, 4-(cyclohex-1-en-1-yl)-7-(cyclohexanesulfonyl)-5H-pyrrolo[3,2-d]pyrimidin-6-amine]",80 nM

# Now from value to molecule:
row,EC50,SMILES
1,9 nM,"Cc1nc(Nc2ccc(Cl)cc2)c2[nH]c(N)c(S(=O)(=O)c3ccccc3F)c2n1 [Example 300, N4-(4-chlorophenyl)-7-(2-fluorobenzenesulfonyl)-2-methyl-5H-pyrrolo[3,2-d]pyrimidine-4,6-diamine]"
2,46 nM,"Nc1[nH]c2c(C3=CCCCC3)ncnc2c1S(=O)(=O)c1ccc(F)cc1 [Example 26, 4-(cyclohex-1-en-1-yl)-7-[(4-fluorobenzene)sulfonyl]-5H-pyrrolo[3,2-d]pyrimidin-6-amine]"
3,8 nM,"Cc1nc(N2CCOC(C)(C)C2)c2[nH]c(N)c(S(=O)(=O)c3cc(F)ccc3F)c2n1 [Example 288, 7-(2,5-difluorobenzenesulfonyl)-4-(2,2-dimethylmorpholin-4-yl)-2-methyl-5H-pyrrolo[3,2-d]pyrimidin-6-amine]"
4,15 nM,"COc1ccc(S(=O)(=O)c2c(N)[nH]c3c(N4CCOC(C)(C)C4)nc(C)nc23)cc1 [Example 204, 4-(2,2-dimethylmorpholin-4-yl)-7-(4-methoxybenzenesulfonyl)-2-methyl-5H-pyrrolo[3,2-d]pyrimidin-6-amine]"
5,1 nM,"COc1ccc(S(=O)(=O)c2c(N)[nH]c3c(N4CCO[C@H](C(F)(F)F)C4)nc(C)nc23)c(F)c1 [Example 282, 7-(2-fluoro-4-methoxybenzenesulfonyl)-2-methyl-4-[(2S)-2-(trifluoromethyl)morpholin-4-yl]-5H-pyrrolo[3,2-d]pyrimidin-6-amine]"
6,19 nM,"Cc1nc(N2CCOC(C)C2)c2[nH]c(N)c(S(=O)(=O)c3ccccc3)c2n1 (stereo not drawn) [Example 111, 7-(benzenesulfonyl)-2-methyl-4-(2-methylmorpholin-4-yl)-5H-pyrrolo[3,2-d]pyrimidin-6-amine]"
7,1 nM,"Cc1nc(N2CCO[C@@H](C(F)(F)F)C2)c2[nH]c(N)c(S(=O)(=O)c3ccccc3F)c2n1 [Example 289, 7-(2-fluorobenzenesulfonyl)-2-methyl-4-[(2R)-2-(trifluoromethyl)morpholin-4-yl]-5H-pyrrolo[3,2-d]pyrimidin-6-amine]"
8,17 nM,"CC1CN(c2nc(N(C)C)nc3c(S(=O)(=O)c4ccccc4F)c(N)[nH]c23)CCO1 (stereo not drawn) [Example 270, 7-(2-fluorobenzenesulfonyl)-2-N,2-N-dimethyl-4-(2-methylmorpholin-4-yl)-5H-pyrrolo[3,2-d]pyrimidine-2,6-diamine]"
9,12 nM,"Nc1[nH]c2c(N3CCOC(C(F)(F)F)C3)ncnc2c1S(=O)(=O)c1ccccc1 (stereo not drawn) [Example 141, 7-(benzenesulfonyl)-4-[2-(trifluoromethyl)morpholin-4-yl]-5H-pyrrolo[3,2-d]pyrimidin-6-amine]"
10,8 nM,"Cc1nc(OC(C)C(F)(F)F)c2[nH]c(N)c(S(=O)(=O)c3ccccc3F)c2n1 (stereo not drawn) [Example 274, 7-(2-fluorobenzenesulfonyl)-2-methyl-4-[(1,1,1-trifluoropropan-2-yl)oxy]-5H-pyrrolo[3,2-d]pyrimidin-6-amine]"
11,31 nM,"CC[C@@H](C)Oc1nc(C)nc2c(S(=O)(=O)c3ccccc3)c(N)[nH]c12 [Example 244, 7-(benzenesulfonyl)-4-[(2R)-butan-2-yloxy]-2-methyl-5H-pyrrolo[3,2-d]pyrimidin-6-amine]"
12,21 nM,"Nc1[nH]c2c(C3=CCCCC3)ncnc2c1S(=O)(=O)c1ccccc1 [Example 2, 7-(benzenesulfonyl)-4-(cyclohex-1-en-1-yl)-5H-pyrrolo[3,2-d]pyrimidin-6-amine]"
13,13 nM,"Cc1nc(N2CCO[C@@H](C)C2)c2[nH]c(N)c(S(=O)(=O)c3ccccc3)c2n1 [Example 226, 7-(benzenesulfonyl)-2-methyl-4-[(2S)-2-methylmorpholin-4-yl]-5H-pyrrolo[3,2-d]pyrimidin-6-amine]"
14,5 nM,"Cc1nc(N2CCO[C@H](C)[C@@H]2C)c2[nH]c(N)c(S(=O)(=O)c3ccccc3F)c2n1 (racemic) [Example 275, 4-[(RS,SR)-2,3-dimethylmorpholin-4-yl]-7-(2-fluorobenzenesulfonyl)-2-methyl-5H-pyrrolo[3,2-d]pyrimidin-6-amine]"
